This assay deals with T1, SARS-CoV-2 NSP3 macrodomain (Severe acute respiratory syndrome coronavirus 2, UniProt P0DTD1).
T1 construct: SARS-CoV-2 NSP3 macrodomain
Description: Mac1 HTRF assay (displacement of ADP-ribose conjugated biotin peptide). The assay is classed as binding. The settings on record: for Mac1 inhibition / affinity in words: qualitative statement. In general terms: In TR-FRET formats the signal depends on donor and acceptor labels being close together.

The term IC50 denotes the midpoint of a concentration-inhibition curve. Lower therefore signals inhibition by little substance. On to `COC1OC(COP(=O)(O)OP(=O)(O)OCC2OC(n3cnc4c(N)ncnc43)C(O)C2O)C(O)C1OCc1ccccc1` (stereo not shown) [Compound 6], for which the half-inhibitory concentration (IC50) is over 200000 nM and the “Mac1 inhibition / affinity in words” value is “poor affinity”. As to `CON=C1C(COP(=O)(O)OP(=O)(O)OCC2OC(n3cnc4c(N)ncnc43)C(O)C2O)OC(OC)C1O` (stereo not shown) [Compound 9], the IC50 was over 200000 nM. Take `COC1OC(COP(=O)(O)OP(=O)(O)OCC2OC(n3cnc4c(N)ncnc43)C(O)C2O)C(F)C1O` (stereo not shown) [Compound 8]: the IC50 is over 200000 nM and the “Mac1 inhibition / affinity in words” value is recorded as “drastically diminished binding affinity”. In the case of `C#CC1OC(COP(=O)(O)OP(=O)(O)OCC2OC(n3cnc4c(N)ncnc43)C(O)C2O)C(O)C1O` (stereo not shown) [Compound 5], the IC50 came out at 2400 ± 200 nM. `[N-]=[N+]=NC1OC(COP(=O)(O)OP(=O)(O)OCC2OC(n3cnc4c(N)ncnc43)C(O)C2O)C(O)C1OCc1ccccc1` (stereo not shown) [Compound 7]: the IC50 is 80000 ± 1700 nM and the “Mac1 inhibition / affinity in words” value is “poor affinity”. As to `CO[C@H]1O[C@H](COP(=O)(O)OP(=O)(O)OC[C@H]2O[C@@](C#N)(c3ccc4c(N)ncnn34)[C@H](O)[C@@H]2O)[C@@H](O)[C@H]1O` [Compound 10, α-O-methyl-NDPr], the IC50 amounted to 63 ± 5 nM. Consider `N#C[C@@]1(c2ccc3c(N)ncnn23)O[C@H](COP(=O)(O)OP(=O)(O)OC[C@H]2O[C@H](N=[N+]=[N-])[C@H](O)[C@@H]2O)[C@@H](O)[C@H]1O` [Compound 11, α-N3-NDPr], for which the IC50 is 30 ± 1.5 nM.

Values taken from PMC11249776, “Synthesis of Structural ADP-Ribose Analogues as Inhibitors for SARS-CoV-2 Macrodomain 1” (Organic Letters, 2024).
